The values that follow are results of earlier work, collected in patent publication US11612595B2, “Compositions and methods for treating rheumatoid arthritis” (Generos Biopharma Ltd., priority 2017, dated 2023).

The term IC50 denotes the midpoint of a concentration-inhibition curve.

SMILES strings stand for the structures.

Data set [1] deals with T1, STAT5 (Homo sapiens, UniProt P42229+P51692).
T1 sequence (P42229 1-794): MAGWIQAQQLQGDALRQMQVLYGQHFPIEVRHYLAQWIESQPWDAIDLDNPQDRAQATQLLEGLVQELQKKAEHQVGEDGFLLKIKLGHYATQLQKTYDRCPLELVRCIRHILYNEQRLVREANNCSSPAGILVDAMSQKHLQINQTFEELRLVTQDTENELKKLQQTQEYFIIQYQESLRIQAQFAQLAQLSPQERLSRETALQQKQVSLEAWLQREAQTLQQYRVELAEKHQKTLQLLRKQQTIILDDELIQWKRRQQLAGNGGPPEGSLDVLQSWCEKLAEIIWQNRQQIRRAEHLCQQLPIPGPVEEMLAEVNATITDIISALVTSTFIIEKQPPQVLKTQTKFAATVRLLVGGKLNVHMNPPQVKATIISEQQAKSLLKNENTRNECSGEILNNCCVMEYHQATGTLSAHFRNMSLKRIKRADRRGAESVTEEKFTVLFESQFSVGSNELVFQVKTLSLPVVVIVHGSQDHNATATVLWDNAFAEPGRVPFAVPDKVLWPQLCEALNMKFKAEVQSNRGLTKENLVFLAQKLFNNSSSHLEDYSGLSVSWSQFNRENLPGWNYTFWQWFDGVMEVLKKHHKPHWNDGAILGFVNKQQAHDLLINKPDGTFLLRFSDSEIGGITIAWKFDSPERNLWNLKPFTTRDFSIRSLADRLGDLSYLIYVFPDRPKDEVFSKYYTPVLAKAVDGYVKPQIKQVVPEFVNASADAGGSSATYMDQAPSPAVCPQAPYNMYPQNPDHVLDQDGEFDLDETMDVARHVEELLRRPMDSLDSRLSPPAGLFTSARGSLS
T1 sequence (P51692 1-787): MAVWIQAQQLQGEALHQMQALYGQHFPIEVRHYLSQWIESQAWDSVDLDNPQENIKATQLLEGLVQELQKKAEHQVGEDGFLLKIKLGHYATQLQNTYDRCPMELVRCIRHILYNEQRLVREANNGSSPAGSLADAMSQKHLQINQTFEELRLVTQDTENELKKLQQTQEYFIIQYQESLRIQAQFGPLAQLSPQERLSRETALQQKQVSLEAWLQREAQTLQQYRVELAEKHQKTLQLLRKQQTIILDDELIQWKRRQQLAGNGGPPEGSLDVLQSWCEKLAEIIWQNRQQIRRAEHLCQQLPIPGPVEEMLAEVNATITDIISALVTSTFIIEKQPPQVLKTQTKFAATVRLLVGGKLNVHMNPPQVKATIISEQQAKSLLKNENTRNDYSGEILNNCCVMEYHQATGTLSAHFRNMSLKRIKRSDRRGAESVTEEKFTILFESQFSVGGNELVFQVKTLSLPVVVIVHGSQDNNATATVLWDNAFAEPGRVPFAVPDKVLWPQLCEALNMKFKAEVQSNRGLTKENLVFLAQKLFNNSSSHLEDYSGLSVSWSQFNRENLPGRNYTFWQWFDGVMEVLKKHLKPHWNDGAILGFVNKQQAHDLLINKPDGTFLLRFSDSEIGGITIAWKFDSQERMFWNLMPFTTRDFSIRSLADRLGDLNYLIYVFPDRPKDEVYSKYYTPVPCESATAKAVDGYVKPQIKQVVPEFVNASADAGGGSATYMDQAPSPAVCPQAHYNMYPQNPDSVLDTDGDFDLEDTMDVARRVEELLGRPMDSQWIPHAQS
Also on record: endogenous in cells. Conditions: Daudi cells; cited from earlier work.

For another data set, the target named is T2, STAT5b SH2 domain (Homo sapiens, UniProt P51692).
T2 sequence (P51692 1-787): T1 sequence (P51692 1-787)
The following applies: read-out: IC50 against STAT5b SH2 domain EPO peptide binding activity; cited from earlier work.

For data set [2], the system named is Chronic Myeloid Leukemia (CML) cell lines. The following applies: cited from earlier work.
The next data set has as its target STAT3 (Homo sapiens, UniProt P40763). Also on record: IFNα-stimulated STAT1 phosphorylation or LIF-stimulated STAT3 phosphorylation in K562 cells; endogenous in cells; host or cells: K562 cells. The following applies: K562 cells, 10 μM 1 h pretreatment; cited from earlier work.
Data set [3] has as its target T1, STAT5. Also on record: in Bcr-Abl+ K562 and KU812 cultures; endogenous in cells; host or cells: K562 and KU812 cells. The following applies: cited from earlier work.
Data set [4] addresses T1, STAT5. On the set-up: in Bcr-Abl+ K562 and KU812 cultures; endogenous in cells; host or cells: K562 and KU812 cells. Conditions: 5 to 10 μM for 3 h; Bcr-Abl+ K562 and KU812 cultures; cited from earlier work.

Chain of STAT3 (P40763 whole entry): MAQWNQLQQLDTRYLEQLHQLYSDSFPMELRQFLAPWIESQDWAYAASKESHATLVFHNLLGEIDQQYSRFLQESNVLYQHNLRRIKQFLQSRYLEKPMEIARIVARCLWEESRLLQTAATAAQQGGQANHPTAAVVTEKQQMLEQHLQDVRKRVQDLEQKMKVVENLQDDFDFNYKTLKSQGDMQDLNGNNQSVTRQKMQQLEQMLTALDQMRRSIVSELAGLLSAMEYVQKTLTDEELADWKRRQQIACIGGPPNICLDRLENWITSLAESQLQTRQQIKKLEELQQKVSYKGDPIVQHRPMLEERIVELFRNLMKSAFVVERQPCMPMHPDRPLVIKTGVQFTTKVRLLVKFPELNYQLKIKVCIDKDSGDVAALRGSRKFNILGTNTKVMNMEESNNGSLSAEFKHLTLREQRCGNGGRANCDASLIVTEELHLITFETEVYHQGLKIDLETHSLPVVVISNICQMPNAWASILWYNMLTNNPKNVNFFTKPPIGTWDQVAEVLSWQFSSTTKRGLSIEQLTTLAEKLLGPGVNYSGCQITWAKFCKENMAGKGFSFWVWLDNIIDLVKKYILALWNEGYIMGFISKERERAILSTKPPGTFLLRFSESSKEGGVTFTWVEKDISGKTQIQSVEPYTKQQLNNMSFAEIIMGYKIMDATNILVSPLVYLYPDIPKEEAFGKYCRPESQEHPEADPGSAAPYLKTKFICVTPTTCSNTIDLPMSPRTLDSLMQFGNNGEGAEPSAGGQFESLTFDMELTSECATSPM

Regarding `O=C(N/N=C/c1coc2ccccc2c1=O)c1cccnc1` [nicotinohydrazide, N′-((4-Oxo-4H-chromen-3-yl)methylene)nicotinohydrazide], on STAT5 [1], the “IFN-α-stimulated STAT5 tyrosine phosphorylation” value is listed as “inhibit”. In addition, the IC50 at STAT5b SH2 domain was 47 µM.
For `O=c1[nH]c2ccccc2n1C1CCN(CCCC(c2ccc(F)cc2)c2ccc(F)cc2)CC1` [pimozide, 1-[1-[4,4-bis(4-fluorophenyl)butyl]-4-piperidinyl]-1,3-dihydro-2H-benzimidazole-2-one], in data set [2], the “cell cycle arrest and apoptosis” value is on record as “induces”. The “LIF-stimulated STAT3 phosphorylation” value at STAT3 was “little activity”. The STAT5 transcription activity entry on STAT5 [3] (5 μM for 18 h, Bcr-Abl+ K562 and KU812 cultures) is listed as “inhibits”. In addition, the “expression of STAT5 target genes” value at STAT5 [3] (CML cell lines) is listed as “decreased”. For the same molecule, the “constitutive STAT5 Tyr694 phosphorylation” value at STAT5 [4] is reported as “inhibits”.
